In patent publication US20120134979A1, “METHODS AND COMPOSITIONS FOR THE TREATMENT OF SICKLE CELL DISEASE” (priority 2010, published 2012):

Columns and labels:
[1] = tested on: normal human RBCs; assay: 2,3-DPG levels in primary cultured normal human RBCs; assay type: cell-based; details: for 2,3-DPG levels / production (agonist): primary cultured human RBCs from normal individuals, normoxic; for NECA-mediated 2,3-DPG induction (effect of antagonist): RBCs from normal individuals, 10 μM NECA, antagonists at 10 μM
Experimental: (§1) Isolation of total erythrocytes and treatment of human and mouse erythrocytes in vitro. Blood collected with heparin as an anti-coagulant was centrifuged at 240×g for 10 min at room temperature, followed by aspiration of plasma and white interface. Packed red blood cells (RBCs) were washed 3 times with culture media (F-10 Ham's with 1% penicillin/streptomycin, 10% fetal bovine serum (FBS), and re-suspended to 4% hematocrit (HCT). One ml of RBCs was added to each well of a 12-well plate. Normal RBCs purified from humans were treated with different concentrations of 5′-(N-ethyl-carboxamido) adenosine (NECA, an adenosine receptor agonist, Sigma-Aldrich, St. Louis, Mo.) ranging from 1-50 μM for different time points (from 1 to 18 hr) under normoxic conditions. Normal RBCs were treated with 10 μM NECA in the presence or absence of adenosine receptor antagonists, including theophylline, PSB36, SCH442416, MRS1754 and MRS3777 (Tocris Bioscience, St. Louis, Mo.) at 10 μM. In addition, normal RBCs were treated directly with the A2BR agonist (BAY 60-6583, Bayer HealthCare AG, Wuppertal, Germany) or the A2AR agonist (CGS21680) (Tocris). Similarly, the mouse RBCs were treated with or without NECA at 10 μM in the presence or absence of theophylline (10 μM). In addition, RBCs purified from 4 adenosine receptor deficient mice were treated with 10 μM NECA. After 18 hours, cells were collected and 2,3-DPG levels were measured as described below. RBCs were purified from SCD patients and treated with or without 10 μM NECA, 5 units/ml polyethylene glycol-adenosine deaminase (PEG-ADA) or 3 mmol/L glycolic acid (Sigma-Aldrich), 10 μM MRS1754 (A2BR antagonist) under ambient oxygen (normoxia) or different levels of hypoxic conditions (for 3 hours with shaking at 37° C. At the end of experiments, 2,3-DPG levels were measured and the percentage of sickled cells determined as described below.
(§2) 2,3-DPG analysis. 2,3-DPG concentration in RBCs was detected by a commercially available kit (Roche, Nutley, N.J., and as described in Ericson A, de Verdier C H. A modified method for the determination of 2,3-diphosphoglycerate in erythrocytes. Scandinavian journal of clinical and laboratory investigation. 1972; 29(1):84-90).

[2] = tested on: normal mouse RBCs; assay: 2,3-DPG levels in isolated mouse RBCs treated in vitro; assay type: cell-based; details: for NECA-mediated 2,3-DPG induction (effect of inhibitor): normal mouse RBCs
Experimental: as §1, §2

[3] = tested on: RBCs from SCD patients; assay: Hypoxia-induced 2,3-DPG in erythrocytes purified from SCD patients; assay type: cell-based, human; details: hypoxic conditions (2% oxygen)
Experimental: as §1, §2

[4] = tested on: RBCs from SCD patients; assay: Hypoxia-induced sickling of RBCs from SCD patients; assay type: cell-based, human; details: RBCs from individuals with SCD, hypoxic conditions
Experimental: as §1
(§3) Morphological study of erythrocytes and quantification of reticulocytes by flow cytometry. Blood smears were stained using the WG16-500 ml kit (Sigma-Aldrich) for sickled cells and observed using 100× oil immersion objective of Olympus BX60 microscope. […] The percentages of sickled cells among the counted cells were calculated. Reticulocyte was labeled by Retic-COUNT Reagent (Becton Dickinson) and quantified by flow cytometry (Perumbeti, et al., A novel human gamma-globin gene vector for genetic correction of sickle cell anemia in a humanized sickle mouse model: critical determinants for successful correction. Blood. 2009; 114(6):1174-1185).

[5] = tested on: mouse RBCs; assay: cAMP levels in isolated mouse RBCs; assay type: cell-based
Experimental: Isolation of total erythrocytes and treatment of human and mouse erythrocytes in vitro. Blood collected with heparin as an anti-coagulant was centrifuged at 240×g for 10 min at room temperature, followed by aspiration of plasma and white interface. […] After 18 hours, cells were collected and 2,3-DPG levels were measured as described below. RBCs were purified from SCD patients and treated with or without 10 μM NECA, 5 units/ml polyethylene glycol-adenosine deaminase (PEG-ADA) or 3 mmol/L glycolic acid (Sigma-Aldrich), 10 μM MRS1754 (A2BR antagonist) under ambient oxygen (normoxia) or different levels of hypoxic conditions (for 3 hours with shaking at 37° C. At the end of experiments, 2,3-DPG levels were measured and the percentage of sickled cells determined as described below.
cAMP measurement. Quantitative assays for cAMP contents in RBCs were performed by using a commercial enzyme immunoassay kit (Assay Designs Inc., Michigan, USA).

[6] = tested on: SCD Tg mice; assay: Hematological parameters of SCD Tg mice treated with PEG-ADA or PSB1115 for 8 weeks; assay type: in vivo, mouse; details: 8 weeks treatment
Text: Mice. Berkley sickle cell disease transgenic mice (SCD Tg mice), expressing exclusively human sickle hemoglobin (HbS) were purchased from The Jackson Laboratory Inc (Paszty, C. Transgenic and gene knock-out mouse models of sickle cell anemia and the thalassemias. Curr Opin Hematol 4, 88-93, 1997). C57BL/6 mice used as controls were purchased from Harlan Laboratories. Adenosine receptor deficient mice were obtained from the following sources: A1R-deficient mice (Jurgen Schnermann, NIDDK, NIH); A2AR-deficient mice (Jiang-Fan Chen, Boston University School of Medicine); A2BR-deficient mice (Michael R. Blackburn, University of Texas-Houston Medical School); and A3R-deficient mice (Marlene Jacobson, Merck Research Laboratories). All receptor deficient mice were backcrossed at least 10 generations onto the C57Blk/6J background and were genotyped according to established protocols (Sun, D., et al. Mediation of tubuloglomerular feedback by adenosine: evidence from mice lacking adenosine receptors. Proc Natl Acad Sci USA 98, 9983-9988, 2001; Nemeth, Z. H., et al. Adenosine receptor activation ameliorates type 1 diabetes. FASEB J, 2007; Chen, J. F., et al. A2A adenosine receptor deficiency attenuates brain injury induced by transient focal ischemia in mice. J Neurosci 19, 9192-9200, 1999; Salvatore, C. A., et al. Disruption of the A3 adenosine receptor gene in mice and its effect on stimulated inflammatory cells. The Journal of Biological Chemistry 275, 4429-4434, 2000). Animals were maintained in accordance with institutional and NIH guidelines under research protocols that were reviewed and approved by the University of Texas Health Science Center at Houston Animal Welfare Committee.
(§4) Chronic PEG-ADA therapy. SCD transgenic mice, at eight weeks of age, were divided to two groups. One group was injected with 2.5 U PEG-ADA weekly for 8 weeks. This dosing protocol was designated SCD with PEG-ADA treatment regimen (SCD+PEG-ADA). Another group was injected with normal saline for 8 weeks; it was designated as SCD without PEG-ADA treatment regimen (SCD). Wild-type mice (C57Bl/6) used as control were injected with saline or PEG-ADA as with the SCD groups.
(§5) Chronic treatment with A2BR antagonist, PSB1115. SCD transgenic mice or wild type mice (eight weeks of age) were divided to two groups, one groups was injected with 200 μg of PSB1115 (an A2B receptor antagonist: obtained from Tocris Bioscience, St. Louis, Mo.) in PBS, daily for 8 weeks. One of groups was injected with saline.
as §3

[7] = tested on: SCD Tg mice; assay: 2,3-DPG in RBCs and saturated Hb in SCD Tg mice after chronic treatment; assay type: in vivo, mouse; details: steady state, 8 weeks treatment
Experimental: as §4, §5, §2
Measurement of percentage of saturated Hb in mice. Percentage of saturated Hb (SpO2) in mice was measured by Oxysat (Kent Scientific Corp, CT). Mice were held in mouse holders (Kent Scientific Corp, CT) and Oxysat sensor was placed on a site approximately 1 cm from the base of the tail. When mouse was calm, the SpO2 was continuously recorded for about 2 minutes. The data were collected and SpO2 was calculated by average of SpO2 in two-minute measurement.

[8] = tested on: SCD Tg mice; assay: Organ weight, histology and heme content in SCD Tg mice after chronic treatment; assay type: in vivo, mouse; details: 8 weeks treatment, lung, liver, spleen (PSB1115 also kidney)
Experimental: as §4, §5
Mouse organ isolation and histological analysis. Mice were anesthetized and body weight was determined. Organs were isolated and weighed. Half of each organ was quickly frozen in liquid nitrogen and then stored at −80° C. for heme content measurements as described below. The remaining half of each organ was fixed with 4% paraformaldehyde in PBS overnight at 4° C. Fixed tissues were rinsed in PBS, dehydrated through graded ethanol washes, and embedded in paraffin. 5 μm sections were collected on slides and stained with haematoxylin and eosin (H&E). Semiquantification of histological changes was analyzed by Image-Plus, Pro software.
Heme content measurement in multiple mouse tissues. Different organs were quickly removed and frozen in liquid nitrogen as described above. Heme was extracted from organs by homogenization with 1% Triton x-100 in PBS with 1× proteinase inhibitors (Roche) and the supernatant was collected following centrifugation at 20,000 g for 10 minutes at 4° C. Heme content was quantified following the instructions of QuantiChrom Heme Assay Kit (BioAssay Systems, Hayword, Calif.).

[9] = tested on: SCD Tg mice; assay: Life span of RBCs in SCD Tg mice (in vivo biotin labelling); parameters: species or system mouse
Experimental: Measurement of life span of RBCs in SCD Tg mice. SCD Tg mice were treated with or without PEG ? ADA (2.5 unit/week) for 8 weeks. At 6 week-treatment, RBCs were labeled in vivo by using N-hydroxysuccinimide (NHS) biotin and the life span of circulating red blood cells was measured as described (Perumbeti, et al. A novel human gamma-globin gene vector for genetic correction of sickle cell anemia in a humanized sickle mouse model: critical determinants for successful correction. Blood. 2009; 114(6):1174-1185).
Specifically, 50 mg/kg of NHS biotin was injected into the retro-orbital plexus of SCD Tg mice (prepared in 100 μl sterile saline just prior to injection; initially dissolved at 50 mg/ml in N,—N,-dimethylacetamide) Blood samples (only 5 μl) were collected after first day of biotin-injection from tail vein by venipuncture to determine the percentage of RBCs labeled with biotin. Subsequently, 5 μl of blood were obtained by tail vein every 3 days for measurement of biotinylated RBCs until the 10th day. The percentage of biotinylated RBCs was calculated by determining the fraction of peripheral blood cells labeled with Ter-119 (to identify RBCs) that were also labeled with a streptavidin-conjugated fluorochrome by flow cytometry.

Compound: N#Cc1c(N)nc(SCC(N)=O)c(C#N)c1-c1ccc(OCC2CC2)cc1 [BAY 60-6583]
- 2,3-DPG levels / production (agonist) [1]: induced 2,3-DPG production in a dosage-dependent manner

Compound: CCNC(=O)[C@H]1O[C@@H](n2cnc3c(N)nc(NCCc4ccc(CCC(=O)O)cc4)nc32)[C@H](O)[C@@H]1O [CGS21680]
- 2,3-DPG levels / production (agonist) [1]: not

Compound: O=S(=O)(NCCNC/C=C/c1ccc(Br)cc1)c1cccc2cnccc12 [H-89]
- NECA-mediated 2,3-DPG induction (effect of inhibitor) ([2]; NECA 10 μM): significantly inhibited
- hypoxia-mediated induction of 2,3-DPG [3]: reduced
- percentage of sickled cells [4]: significantly reduced

Compound: CCCn1c(=O)c2[nH]c(-c3ccc(OCC(=O)Nc4ccc(C#N)cc4)cc3)nc2n(CCC)c1=O [MRS1754]
- NECA-mediated 2,3-DPG induction (effect of antagonist) [1]: inhibited
- hypoxia-mediated induction of 2,3-DPG [3]: reduced
- percentage of sickled cells [4]: significantly reduced

Compound: c1ccc(Oc2nc(NC3CCCCC3)c3[nH]cnc3n2)cc1 [MRS3777]
- NECA-mediated 2,3-DPG induction (effect of antagonist) [1]: not

Compound: CCNC(=O)[C@H]1O[C@@H](n2cnc3c(N)ncnc32)[C@H](O)[C@@H]1O [NECA, 5′-N-ethylcarboxamidoadenosine]
- cAMP production ([5]; RBCs from A2BR-deficient mice): not
- cAMP production ([5]; RBCs from WT mice): capable of inducing cAMP production
- NECA-mediated 2,3-DPG induction ([2]; RBCs from A2BR-deficient mice): did not occur
- 2,3-DPG levels ([2]; primary normal mouse mature erythrocytes, NECA 10 μM, 18 hours): stimulated an increase
- 2,3-DPG levels / production (agonist) [1]: stimulated 2,3-DPG levels in a dosage and time-dependent manner
- hypoxia-mediated induction of 2,3-DPG [3]: significantly stimulated a further increase
- percentage of sickled cells [4]: significantly increased

Compound: CCCCn1c(=O)c2[nH]c(C34CC5CC(CC3C5)C4)nc2n(CCCO)c1=O [PSB36]
- NECA-mediated 2,3-DPG induction (effect of antagonist) [1]: not

Compound: CCCn1c(=O)[nH]c2nc(-c3ccc(S(=O)(=O)O)cc3)[nH]c2c1=O [PSB1115, reference compound]
- HCT [6]: 31.82 ± 3.43 %
- Hb [6]: 8.25 ± 0.29 g/dL
- MCH [6]: 12.78 ± 0.46 pg
- MCHC [6]: 26.02 ± 1.82 g/dL
- MCV [6]: 49.17 ± 1.82 fL
- RDW [6]: 28.27 ± 1.36 %
- Reticulocyte [6]: 37.15 ± 3.27 %
- Sickle cell [6]: 9.07 ± 0.75 %
- WBC [6]: 11.95 ± 3.27 k/μl
- RBC ([6]; mean ± SEM): 6.45 ± 0.45 M/μl
- 2,3-DPG levels in the RBCs [7]: decreases
- congestion, vascular damage and necrosis in multiple tissues (histology) [8]: reduced
- fold increase of half-life of RBCs ([9]; chronic treatment vs untreated): 2.75 fold
- half-life of RBCs ([9]; chronic treatment, untreated 2 days): 132 h

Compound: COc1ccc(CCCn2ncc3c2nc(N)n2nc(-c4ccco4)nc32)cc1 [SCH442416]
- NECA-mediated 2,3-DPG induction (effect of antagonist) [1]: not

Compound: O=C(O)CO [glycolate, glycolic acid]
- hypoxia-mediated induction of 2,3-DPG [3]: reduced
- percentage of sickled cells [4]: significantly reduced

Compound: Cn1c(=O)c2[nH]cnc2n(C)c1=O [theophylline]
- NECA-mediated 2,3-DPG induction (effect of inhibitor) ([2]; NECA 10 μM): prevented
- NECA-mediated 2,3-DPG induction (effect of antagonist) [1]: inhibited
